# Where a SMILES comes first, the peptide text is derived from it. [ ]: non-standard residue; d: D form. ξ: configuration not given here. ξD = NC(CC(=O)O)C(=O)O
# What was measured:
# [1] = target: T1, SMase-treated LDL (Homo sapiens, UniProt P04114); assay: Anti-LDL aggregation assay, turbidimetry, aggregation induced by sphingomyelinase (SMase); type: biochemical; conditions: peptide 10 μM (compound/ApoB-100 4.7/1), human LDL 1.44 mg/mL, 40 U/L Bacillus cereus SMase, 18 hours, 37° C., absorbance at 405 nm, Equation I
# T1 construct: from tissue; host or cells: pooled normolipemic human plasma
# T1 sequence (P04114 28-4563): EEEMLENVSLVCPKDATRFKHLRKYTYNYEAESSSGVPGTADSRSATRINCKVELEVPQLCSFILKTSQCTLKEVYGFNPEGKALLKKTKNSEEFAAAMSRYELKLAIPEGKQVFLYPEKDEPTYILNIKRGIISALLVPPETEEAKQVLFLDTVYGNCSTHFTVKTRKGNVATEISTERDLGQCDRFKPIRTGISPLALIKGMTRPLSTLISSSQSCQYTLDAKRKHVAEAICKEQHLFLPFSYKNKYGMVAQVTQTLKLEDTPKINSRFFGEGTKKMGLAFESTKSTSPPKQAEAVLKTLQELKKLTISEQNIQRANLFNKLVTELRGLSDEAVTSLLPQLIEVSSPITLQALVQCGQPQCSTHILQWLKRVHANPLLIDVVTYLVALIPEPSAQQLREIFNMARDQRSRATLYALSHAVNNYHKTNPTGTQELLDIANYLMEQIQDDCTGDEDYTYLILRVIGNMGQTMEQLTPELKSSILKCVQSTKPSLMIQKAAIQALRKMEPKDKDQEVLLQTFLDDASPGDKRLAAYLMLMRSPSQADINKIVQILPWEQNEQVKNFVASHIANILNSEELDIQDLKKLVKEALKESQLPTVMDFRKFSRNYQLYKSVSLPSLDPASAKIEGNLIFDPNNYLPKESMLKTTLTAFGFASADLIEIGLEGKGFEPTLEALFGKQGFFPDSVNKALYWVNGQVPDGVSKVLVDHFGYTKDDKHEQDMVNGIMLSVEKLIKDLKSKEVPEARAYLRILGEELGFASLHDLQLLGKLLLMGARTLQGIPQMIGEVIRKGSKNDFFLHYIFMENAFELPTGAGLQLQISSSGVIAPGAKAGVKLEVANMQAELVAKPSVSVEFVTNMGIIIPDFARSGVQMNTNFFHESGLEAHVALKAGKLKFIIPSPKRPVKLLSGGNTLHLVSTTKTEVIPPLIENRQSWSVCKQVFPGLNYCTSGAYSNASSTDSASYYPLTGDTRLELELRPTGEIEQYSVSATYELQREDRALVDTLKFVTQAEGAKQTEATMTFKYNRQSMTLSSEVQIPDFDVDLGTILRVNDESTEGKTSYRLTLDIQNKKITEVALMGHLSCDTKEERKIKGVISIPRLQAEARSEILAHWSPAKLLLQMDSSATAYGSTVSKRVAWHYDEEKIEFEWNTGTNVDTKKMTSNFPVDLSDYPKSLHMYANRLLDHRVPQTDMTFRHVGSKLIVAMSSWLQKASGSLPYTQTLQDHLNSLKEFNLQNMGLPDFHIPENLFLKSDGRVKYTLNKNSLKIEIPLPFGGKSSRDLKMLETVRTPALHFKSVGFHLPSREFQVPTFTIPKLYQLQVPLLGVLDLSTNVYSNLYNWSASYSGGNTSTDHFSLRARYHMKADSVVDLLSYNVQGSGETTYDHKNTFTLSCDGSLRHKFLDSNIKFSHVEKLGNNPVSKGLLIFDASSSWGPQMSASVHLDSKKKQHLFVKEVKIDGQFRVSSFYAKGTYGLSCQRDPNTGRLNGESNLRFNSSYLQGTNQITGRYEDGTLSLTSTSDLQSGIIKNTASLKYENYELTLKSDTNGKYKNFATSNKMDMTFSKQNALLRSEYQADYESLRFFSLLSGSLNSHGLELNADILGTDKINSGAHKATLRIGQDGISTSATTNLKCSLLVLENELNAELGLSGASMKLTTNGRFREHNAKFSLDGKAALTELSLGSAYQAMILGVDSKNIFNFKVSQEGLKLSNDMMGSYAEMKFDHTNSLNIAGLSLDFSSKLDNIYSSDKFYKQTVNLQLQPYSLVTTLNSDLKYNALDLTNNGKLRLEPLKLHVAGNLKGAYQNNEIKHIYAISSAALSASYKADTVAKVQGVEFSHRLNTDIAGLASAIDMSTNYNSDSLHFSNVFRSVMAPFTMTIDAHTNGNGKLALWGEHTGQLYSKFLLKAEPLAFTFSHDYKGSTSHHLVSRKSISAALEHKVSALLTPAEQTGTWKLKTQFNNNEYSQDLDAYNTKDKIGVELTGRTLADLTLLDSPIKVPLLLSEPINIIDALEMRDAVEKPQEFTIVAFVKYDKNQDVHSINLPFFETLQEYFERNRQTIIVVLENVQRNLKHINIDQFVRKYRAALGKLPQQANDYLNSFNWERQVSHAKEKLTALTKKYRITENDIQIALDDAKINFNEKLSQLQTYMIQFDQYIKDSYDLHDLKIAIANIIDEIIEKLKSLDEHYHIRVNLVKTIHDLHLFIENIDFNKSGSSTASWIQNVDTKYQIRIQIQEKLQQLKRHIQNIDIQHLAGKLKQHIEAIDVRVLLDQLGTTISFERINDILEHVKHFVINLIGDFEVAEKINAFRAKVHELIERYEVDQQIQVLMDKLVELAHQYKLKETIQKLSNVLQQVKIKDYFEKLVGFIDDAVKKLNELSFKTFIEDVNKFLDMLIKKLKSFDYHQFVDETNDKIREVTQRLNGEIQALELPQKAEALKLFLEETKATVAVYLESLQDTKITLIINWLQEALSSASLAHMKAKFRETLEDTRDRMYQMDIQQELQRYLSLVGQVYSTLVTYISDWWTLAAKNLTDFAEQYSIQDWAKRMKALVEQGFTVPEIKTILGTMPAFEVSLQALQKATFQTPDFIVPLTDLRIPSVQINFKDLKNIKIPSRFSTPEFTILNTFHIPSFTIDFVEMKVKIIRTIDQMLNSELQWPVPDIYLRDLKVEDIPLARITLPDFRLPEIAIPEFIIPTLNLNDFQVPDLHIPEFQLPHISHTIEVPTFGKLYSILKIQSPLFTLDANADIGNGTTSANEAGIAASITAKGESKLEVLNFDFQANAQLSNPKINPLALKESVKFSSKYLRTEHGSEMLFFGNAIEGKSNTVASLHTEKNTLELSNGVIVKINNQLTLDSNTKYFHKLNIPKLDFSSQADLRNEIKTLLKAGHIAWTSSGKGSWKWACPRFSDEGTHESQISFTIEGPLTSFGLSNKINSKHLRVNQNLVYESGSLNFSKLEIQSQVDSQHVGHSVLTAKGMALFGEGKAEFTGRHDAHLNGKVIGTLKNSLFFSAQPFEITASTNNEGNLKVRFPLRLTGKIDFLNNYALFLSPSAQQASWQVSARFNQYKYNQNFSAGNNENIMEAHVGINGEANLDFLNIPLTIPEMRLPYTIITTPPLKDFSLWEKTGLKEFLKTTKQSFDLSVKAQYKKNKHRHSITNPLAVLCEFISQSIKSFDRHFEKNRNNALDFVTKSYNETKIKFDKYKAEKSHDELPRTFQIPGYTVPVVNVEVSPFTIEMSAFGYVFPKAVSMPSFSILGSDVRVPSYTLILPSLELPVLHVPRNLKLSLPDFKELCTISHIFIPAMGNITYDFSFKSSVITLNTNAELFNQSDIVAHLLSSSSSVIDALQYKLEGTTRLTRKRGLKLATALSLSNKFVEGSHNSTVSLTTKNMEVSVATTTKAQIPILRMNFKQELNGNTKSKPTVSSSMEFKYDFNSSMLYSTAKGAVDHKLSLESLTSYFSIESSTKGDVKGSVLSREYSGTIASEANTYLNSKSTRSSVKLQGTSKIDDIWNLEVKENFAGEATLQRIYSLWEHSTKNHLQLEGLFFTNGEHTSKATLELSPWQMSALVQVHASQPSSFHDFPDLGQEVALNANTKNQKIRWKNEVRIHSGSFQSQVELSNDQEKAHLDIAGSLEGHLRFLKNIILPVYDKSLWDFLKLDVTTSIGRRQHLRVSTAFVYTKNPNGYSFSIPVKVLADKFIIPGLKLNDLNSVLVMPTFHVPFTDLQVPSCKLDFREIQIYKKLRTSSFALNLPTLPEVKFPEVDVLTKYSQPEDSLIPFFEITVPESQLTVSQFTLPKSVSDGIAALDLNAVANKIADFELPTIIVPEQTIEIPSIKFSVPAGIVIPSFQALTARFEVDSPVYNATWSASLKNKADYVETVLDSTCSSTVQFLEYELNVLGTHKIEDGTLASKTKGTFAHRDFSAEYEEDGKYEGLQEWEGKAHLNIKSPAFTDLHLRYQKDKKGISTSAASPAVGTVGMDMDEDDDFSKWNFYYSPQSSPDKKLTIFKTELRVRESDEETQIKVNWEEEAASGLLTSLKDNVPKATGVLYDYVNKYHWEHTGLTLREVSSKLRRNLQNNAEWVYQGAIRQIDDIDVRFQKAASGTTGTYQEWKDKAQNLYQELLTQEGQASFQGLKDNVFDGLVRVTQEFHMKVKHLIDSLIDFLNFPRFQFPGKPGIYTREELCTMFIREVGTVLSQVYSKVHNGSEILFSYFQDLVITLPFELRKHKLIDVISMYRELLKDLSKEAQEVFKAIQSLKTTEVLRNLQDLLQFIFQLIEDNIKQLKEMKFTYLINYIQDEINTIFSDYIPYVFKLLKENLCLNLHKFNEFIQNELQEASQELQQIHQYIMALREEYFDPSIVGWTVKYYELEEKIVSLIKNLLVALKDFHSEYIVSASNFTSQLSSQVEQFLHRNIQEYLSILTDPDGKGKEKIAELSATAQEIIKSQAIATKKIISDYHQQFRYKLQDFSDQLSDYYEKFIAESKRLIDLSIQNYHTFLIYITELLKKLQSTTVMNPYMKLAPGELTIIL
# Procedure: (§1) The efficacy of the novel compounds to inhibit the aggregation of LDL has been tested in two parallel turbidimetric assays differing from each other only in the enzyme used to induce LDL aggregation, namely sphingomyelinase (SMase) and phospholipase A2 (PLA2), respectively.
# (§2) Human LDL (d1.019-d1.063 g/mL) were obtained from pooled normolipemic human plasma by sequential ultracentrifugation in a KBr density gradient. Briefly, VLDL were first discarded after spinning plasma at 36.000 rpm for 18 h at 4° C., VLDL-free plasma was layered with 1.063 g/mL KBr solution and centrifuged at 36,000 rpm for 18 h at 4° C. LDL were dialyzed against 0.02 M Tris, 0.15 M NaCl, 1 mM EDTA, pH 7.5 for 18 hours, and then against normal saline for 2 hours. Finally, isolated LDL were filter-sterilized. Protein concentration was determined using a colorimetric assay.
# (§3) Human LDL particles (1.44 mg/mL) were incubated with 40 U/L of Bacillus cereus SMase or with 50 μg/L of type II secretory PLA2 from honey bee venom in 20 mM Tris buffer (pH 7.0) containing 150 mM NaCl, 2 mM CaCl2), and MgCl2 at 37° C. LDL incubation with SMase and PLA2 was performed at peptide concentration of 10 μM (ratio compound/ApoB-100: 4.7/1) for 18 hours. LDL lipolysis was stopped by addition of EDTA (final concentration 10 mM).
# (§4) The efficiency of each novel compound to inhibit LDL aggregation induced by SMase and PLA2 was estimated by turbidimetry measuring the absorbance at a wavelength of 405 nm. Thus, the inhibitory activity was calculated according to Equation I.
# (§5) a corresponds to the absorbance value in the presence of nLDL particles, LDL aggregating enzyme (i.e., SMase or PLA2) and test compound;
# (§6) b corresponds to the absorbance value in the presence of only nLDL particles;
# (§7) c corresponds to the absorbance value in the presence of nLDL particles and LDL aggregating enzyme (i.e., SMase or PLA2);
# [2] = target: T2, PLA2-treated LDL (Homo sapiens, UniProt P04114); assay: Anti-LDL aggregation assay, turbidimetry, aggregation induced by phospholipase A2 (PLA2); type: biochemical; conditions: 18 h, read-out: Inhibition of LDL aggregation, PLA2-treated LDL
# T2 construct: from tissue; host or cells: pooled normolipemic human plasma
# T2 sequence (P04114 28-4563): as above
# Procedure: as §1, §2, §3, §4, §5, §6, §7
# [3] = test system: human coronary vascular smooth muscle cells (hcVSMC); assay: Inhibition of intracellular cholesterol accumulation induced by SMase (CE/FC ratio); type: cell-based; conditions: hcVSMC exposed 2 hours to SMase-LDL treated overnight with peptide 10 μM; CE and FC by thin layer chromatography and densitometry, Equation II
# Procedure: Thus, the inhibitory effect of the novel compounds on the intracellular cholesterol accumulation has been analysed in terms of decrease in the ratio of intracellular CE and free cholesterol FC content of hcVSMC exposed to LDL and SMase-LDL.
# All cells used were from a unique batch in order to prevent variability from cell origin. Cell quiescence was induced by maintaining the cell culture for 24 hours in a medium. Serum-deprived cells between passages 4 and 8 were used for experiments. VSMCs at these passages appeared as a relatively homogeneous population, showing a hill-and-valley confluence pattern. Cell monolayers were grown in vascular cell basal medium supplemented with vascular smooth muscle growth kit components. Quiescent cells were 2-hours exposed to LDL treated with SMase (in absence or presence of peptides) overnight at a concentration of 10 μM previously checked its aggregation by a turbidimetry test. Cells were then either collected for lipid extraction or processed for confocal microscopy analysis.
# Following the lipoprotein incubation period, hcVSMC were exhaustively washed (twice with PBS, twice with PBS supplemented with 1% BSA, and once with PBS supplemented with both 1% BSA and 100 U/mL heparin), before they were harvested into 1 mL of 0.15 M NaOH. Lipids were extracted using the Bligh and Dyer method. The lipid extract was redissolved in dichloromethane, applied to silica gel plates, and separated by thin layer chromatography. A mixture of cholesterol and cholesterol palmitate, were also run as standards. Heptane or a solvent combination of heptane/diethylether/acetic acid (74:21:4, v/v/v) were used as chromatographic mobile phase. After lipid separation, the plates were dried and stained as previously reported. Finally, the spots corresponding to cholesteryl ester (CE) and free cholesterol (FC) were quantitated by densitometry.
# The efficacy of each novel compound to decrease the ratio of intracellular cholesteryl esters (CE) and free cholesterol (FC) content of hcVSMC exposed to LDL and SMase-LDL was calculated according to Equation II.
# a corresponds to the CE/FC ratio in hcVSMC exposed to SMase-LDL and in the presence of the test compound.
# b corresponds to the CE/FC ratio in hcVSMC exposed to nLDL in the absence of the test compound.
# c corresponds to the CE/FC ratio in hcVSMC exposed to SMase-LDL in the absence of the test compound.
Compound,inhibition at 10 µM [1] [%],inhibition at 10 µM [2] [%],CE/FC ratio decrease (%) [3] [%]
"CC(=O)N[C@H](CC(=O)O)C(=O)N[C@H](CO)C(=O)N[C@H](CCC(=O)O)C(=O)N[C@H](CC(=O)O)C(=O)N[C@H](CC(N)=O)C(=O)N[C@H](CO)C(=O)N[C@H](CC(=O)O)C(=O)N[C@H](CCC(=O)O)C(=O)N[C@H](CCC(=O)O)C(=O)N[C@H](C)C(N)=O [Example 15, Ac-D-Asp-D-Ser-D-Glu-D-Asp-D-Asn-D-Ser-D-Asp-D-Glu-D-Glu-D-Ala-NH2] (Ac-[dD][dS][dE][dD][dN][dS][dD][dE][dE][dA]-NH2)",96,95.9,90.2
"CC(=O)N[C@H](CC(=O)O)C(=O)N[C@H](C)C(=O)N[C@H](CCC(=O)O)C(=O)N[C@H](CC(=O)O)C(=O)N[C@H](CC(N)=O)C(=O)N[C@H](C)C(=O)N[C@H](CC(=O)O)C(=O)N[C@H](CCC(=O)O)C(=O)N[C@H](CCC(=O)O)C(=O)N[C@H](C)C(N)=O [Example 17, Ac-D-Asp-D-Ala-D-Glu-D-Asp-D-Asn-D-Ala-D-Asp-D-Glu-D-Glu-D-Ala-NH2] (Ac-[dD][dA][dE][dD][dN][dA][dD][dE][dE][dA]-NH2)",95.2,66.1,67.4
"CC(=O)N[C@H](CC(=O)O)C(=O)N[C@H](CO)C(=O)N[C@H](CCC(=O)O)C(=O)N[C@H](CC(=O)O)C(=O)N[C@H](CC(N)=O)C(=O)N[C@H](C)C(=O)N[C@H](CC(=O)O)C(=O)N[C@H](CCC(=O)O)C(=O)N[C@H](CCC(=O)O)C(=O)N[C@H](C)C(N)=O [Example 16, Ac-D-Asp-D-Ser-D-Glu-D-Asp-D-Asn-D-Ala-D-Asp-D-Glu-D-Glu-D-Ala-NH2] (Ac-[dD][dS][dE][dD][dN][dA][dD][dE][dE][dA]-NH2)",94,61.9,69.5
"CC(=O)N[C@H](CC(N)=O)C(=O)N[C@H](CC(=O)O)C(=O)N[C@H](CO)C(=O)N[C@H](CCC(=O)O)C(=O)N[C@H](CC(=O)O)C(=O)N[C@H](CC(N)=O)C(=O)N[C@H](CO)C(=O)NC(CC(=O)O)C(=O)N[C@H](CCC(=O)O)C(=O)N[C@H](CCC(=O)O)C(=O)N[C@H](C)C(N)=O (stereo partly drawn) [Example 14, Ac-D-Asn-D-Asp-D-Ser-D-Glu-D-Asp-D-Asn-D-Ser-D-Asp-D-Glu-D-Glu-D-Ala-NH2] (Ac-[dN][dD][dS][dE][dD][dN][dS][ξD][dE][dE][dA]-NH2)",68.3,74,62.7
"CC(=O)N[C@H](CO)C(=O)N[C@H](CCC(=O)O)C(=O)N[C@H](CC(=O)O)C(=O)N[C@H](CC(N)=O)C(=O)N[C@H](CCCNC(=N)N)C(=O)N[C@H](CC(=O)O)C(=O)N[C@H](CCC(=O)O)C(=O)N[C@H](CCC(=O)O)C(=O)N[C@H](CCCNC(=N)N)C(N)=O [Example 6, Ac-D-Ser-D-Glu-D-Asp-D-Asn-D-Arg-D-Asp-D-Glu-D-Glu-D-Arg-NH2] (Ac-[dS][dE][dD][dN][dR][dD][dE][dE][dR]-NH2)",85,15.3,58.8
"CC(=O)N[C@H](CC(=O)O)C(=O)N[C@H](CC(N)=O)C(=O)N[C@H](CC(=O)O)C(=O)N[C@H](CO)C(=O)N[C@H](CCC(=O)O)C(=O)N[C@H](CC(=O)O)C(=O)N[C@H](CC(N)=O)C(=O)N[C@H](CO)C(=O)N[C@H](CC(=O)O)C(=O)N[C@H](CCC(=O)O)C(=O)N[C@H](CCC(=O)O)C(=O)N[C@H](CC(N)=O)C(N)=O [Example 10, Ac-D-Asp-D-Asn-D-Asp-D-Ser-D-Glu-D-Asp-D-Asn-D-Ser-D-Asp-D-Glu-D-Glu-D-Asn-NH2] (Ac-[dD][dN][dD][dS][dE][dD][dN][dS][dD][dE][dE][dN]-NH2)",96,94,78.4
"CC(=O)N[C@H](CO)C(=O)N[C@H](CCC(=O)O)C(=O)N[C@H](CC(=O)O)C(=O)N[C@H](CC(N)=O)C(=O)N[C@H](CCCCN)C(=O)N[C@H](CC(=O)O)C(=O)N[C@H](CCC(=O)O)C(=O)N[C@H](CCC(=O)O)C(=O)N[C@H](CC(N)=O)C(N)=O [Example 9, Ac-D-Ser-D-Glu-D-Asp-D-Asn-D-Lys-D-Asp-D-Glu-D-Glu-D-Asn-NH2] (Ac-[dS][dE][dD][dN][dK][dD][dE][dE][dN]-NH2)",91,36.4,58.8

# — patent US20220220155A1, “VASCULAR C[…] USE THEREOF” (priority 2019, published 2022)
